Test results: patent US9689043B2 (CHUNGBUK NATIONAL UNIVERSITY INDUSTRY—ACADEMIC COOPERATION …, priority 2012, dated 2017)

System: T24 human bladder cancer cells
Experiment: Cell viability assay (MTS) in transfected T24 cells incubated with drugs
Assay type: cell-based
Description: T24 human bladder cancer cells were purchased from American Type Culture Collection (ATCC, Manassas, Va.) and maintained in RPMI1640 media (Invitrogen, Carlsbad, Calif.) with 10% FBS and 1% Penicillin/Streptomycin at 37° C. under 5% CO2. T24 cells at ˜80% confluence were transiently transfected with expressing constructs or small interfering RNAs (siRNAs) of EGFR and S100A9 using Lipofactamine 2000. For S100A9 overexpression, pCMV-Sports6-S100A9 and vector constructs were kindly provided by Dr. A. Moon (Duksung University, Korea). As transfection controls, empty (Ctrl) or NON-TARGET control siRNAs (siCtrl) were used.
Cell viability was determined using MTS reagents as instructed by the manufacturer's protocol (Promega Corporation, Madison, Wis.).

For `COc1cc2ncnc(Nc3ccc(F)c(Cl)c3)c2cc1OCCCN1CCOCC1` [Iressa, gefitinib], the Cell viability (T24 cells, EGFR inhibition with Iressa (FIG. 6, line 2)) was “significantly reduced viability”, the Chemo-sensitivity to cisplatin (T24 cells, EGFR inhibition with Iressa plus cisplatin (FIG. 6, line 2)) was “enhanced chemo-sensitivity to cisplatin” and the Chemo-sensitivity to cisplatin (T24 cells, Iressa combined with S100A9 silencing by siRNA, plus cisplatin (FIG. 6, line 4)) was “synergistically enhanced chemo-sensitivity”.

With `N.N.[Cl][Pt][Cl]` [cisplatin] the “Cisplatin-induced apoptosis / viability” value (EGFR overexpressing T24 cells, 10 μM cisplatin, serum free medium) was “did not show significant apoptosis until 24 h-treatment”.
